Data as given in US4530932A, “4-(1H-indol-3-yl)-α-methyl-piperidine-1-ethanol derivatives” (Roussel Uclaf, priority 1982, dated 1985).
Where a name gives a salt, the structure may show the parent alone. Read-outs that look alike come from different tables or passages of the source.

What was measured:
[1] = system: Rat arteries (arterial contractions, entry of calcium ions into the cells of smooth muscles); assay: In vitro anticalcic activity (inhibition of potassium-depolarized, calcium-induced contractions of isolated rat arteries); assay type: cell-based; settings: dose inhibiting by 50% the contractions caused by potassium ions (100 mM), 37° C., read-out: CI50 (the source's name)
Description: Rat arteries decoupled in a spiral were attached to a tension collector and were maintained in tanks containing 2.5 ml of Krebs-sodium bicarbonate buffer (NaCl: 120.8 mM, KCl: 5.9 mM, MgCl2 : 1.2 mM, NaH2 PO4 : 1.2 mM, NaHCO3 : 15.5 mM, glucose: 12.6 mM), at 37° C. covered with a 95%-5% oxygen-carbon dioxide mixture. The preparations were depolarized with a buffered solution containing 100 mM of potassium ions (NaCl: 26.7 mM, KCl: 100 mM, MgCl2 : 1.2 mM, NaH2 PO4 : 1.2 mM, NaHCO3 : 15.5 mM, glucose 12.6 mM).
A volume of 25 μl of calcium chloride was added to the mixture in a manner to obtain a range of increasing concentrations of calcium ions from 0.1 to 3.0 mM and the contractions of the artery were measured to obtain a control. The operation with range of calcium ions was repeated every 15 minutes and the preparation was washed 4 times after each range. When a stable response was obtained, the operation with the range of calcium ions was effected in the presence of varying concentrations of test compounds until a stable response was obtained.
The arterial contractions depend on the entry of calcium ions into the cells of smooth muscles and are provoked by depolarization of smooth muscles by potassium ions and by action of noradrenaline freed by presynapthic level. By recommencing the operation with denerved arteries by the action of 6-hydroxy-dopamine, the specific action due to noradrenaline is suppressed.

[2] = system: cardiac rhythm troubles in guinea pigs; assay: Antiarythmic action (K-strophanthine and adrenaline induced cardiac rhythm troubles); assay type: in vivo, guinea pig; settings: Cavia porcellus, 1 h, oral 10 mg/kg, one hour before K-strophanthine and adrenaline perfusion, read-out: Percentage of protection (lengthening of the time of appearance of cardiac rhythm troubles as compared to controls)
Description: Male guinea pigs weighing between 450 and 500 g were tracheotomized while anesthesized by intraperitoneal administration of […] of urethane and were subjected to artifical respiration of 40 to 50 breaths of 5 ml per minute. Needles were subcutaneously implanted to register an electrocardiogram of the guinea pigs for the signal of D II derivation. The test products were orally administered and one hour later, the jugular vein of the guinea pigs were perfused with 0.5 ml per minute of a solution of 150 γ/ml of K-strophanthine and 0.5 ml per minute of a solution of 5 γ/ml of adrenaline and the number of times of the appearance of cardiac rhythm troubles was noted. The results are expressed in percentage of protection with an oral dose of 10 mg/kg of test product that is to say the percentage of lengthening of the time of appearance of cardiac rhythm troubles as compared to the controls.

α1 adrenergic receptors = assay: Affinity for α1 adrenergic receptors (3H prazosine displacement, rat brain); assay type: binding; settings: relative to phentolamine (ARL=100×(CB/CX)), 25° C., pH 7.7
Description: After centrifugation at 30,000 g for 15 minutes at 0° to 4° C., the culot was suspended in 240 ml of buffer Tris HCl 50 mM (pH-7.7) and the suspension was centrifuged at 30,000 g for 20 minutes at 0° to 4° C. The new culot was suspended in 480 ml of buffer Krebs Tris HCl (pH of 7.7-50 mM) and 2 ml of the suspension in the presence of 3H prazosine at a concentration of […] alone and with increasing concentrations of the test compound or with non-radioactive phentolamine at a concentration of 10^-5 M to determine the non-specific fixation was incubated at 25° C. for 30 minutes.
The incubated suspensions were filtered through Whatman FG/C and the filtered were washed with 3 times with 5 ml of buffer Krebs Tris HCl-pH of 7.7 at 0° to 4° C. The radioactivity of the filters was measured by liquid scintillation and the affinity of the test compound for α1 adrenergic receptors was compared relative to phentolamine as the reference compound by the formula
CD=concentration of phentolamine inhibiting by 50% the specific fixation of 3H prazosine.
CX=concentration of test product inhibiting by 50% the specific fixation of 3H prazosine.

β1 adrenergic receptors = target: T1, β1 adrenergic receptors (Rattus norvegicus, UniProt P18090); assay: Affinity for β1 adrenergic receptors (3H dihydroalprenolol displacement, rat brain cortex); assay type: binding; settings: relative to propranolol, 37° C., pH 7.7
T1 construct: 10 cortexes removed from the brains of male rats weighing an average of 150 g; from tissue; host or cells: cerebral cortex of male rats (membranes)
Description: The test was inspired by that of Mohler et al [Science, Vol. 198 (1977), p. 849-851] and 10 cortexes removed from the brains of male rats weighing an average of 150 g were homogenized in 90 ml of 0.32M of sucrose. After centrifuging the homogenized mixture at 1000 g for 20 minutes at 0° C., the surnageant was centrifuged at 30,000 g for 15 minutes at 0° to 4° C. The culot was suspended in 120 ml of buffer Tris HCl 50 mM with a pH of 7.7 and was centrifuged at 30,000 g for 15 minutes at 0° to 4° C. The resulting culot was suspended in 480 ml of buffer Krebs Tris HCl (50 mM-pH of 7.7) and 2 ml of the suspension in the presence of 3H dihydroalprenolol at a concentration of 10^-9 M alone and with increasing concentrations of the test compound or with non-radioactive propranolol at a concentration of 10^-5 M to determine the non-specific fixation was incubated at 37° C. for 10 minutes.
The incubated suspensions were filtered through Whatman GF/C and the filters were washed 3 times with 5 ml of buffer Krebs Tris HCl (pH-7.7) at 0° C. The radioactivity of the filters was measured by liquid scintillation and the affinity of the test compounds for β1 -adrenergic receptors was compared using propranolol as a standard as in Test D. The results are reported in Table VI.

β2 -adrenergic receptors = target: T2, β2 -adrenergic receptors (Rattus norvegicus, UniProt P10608); assay: Affinity for β2 adrenergic receptors (3H dihydroalprenolol displacement, rat cerebellum); assay type: binding; settings: relative to propranolol, 37° C., pH 7.7
T2 construct: cerebellums of male rats weighing an average of 150 g; from tissue; host or cells: cerebellum of male rats (membranes)
Description: The technique was inspired by that of Mohler et al [Science, Vol. 198 (1977), p. 849-851] and the cerebellums of male rats weighing an average of 150 g were homogenized in 90 ml of 0.32M sucrose. After centrifugation of the homogenized mixture at 1000 g for 20 minutes at 0° C., the surnageant was centrifuged at 30,000 g for 15 minutes at 0° to 4° C. The culot was suspended in 120 ml of buffer Tris HCl (50 mM-pH of 7.7) and the suspension was centrifuged at 30,000 g for 15 minutes at 0° to 4° C. The resulting culot was suspended in 480 ml of buffer Krebs Tris HCl with a pH of 7.7 and 2 ml of the suspension was incubated at 37° C. for 10 minutes in the presence of 3H dihydroalprenolol at a concentration of 10^-9 M alone and with increasing concentrations of the test compound or with 10^-5 M of non-radioactive propranolol to determine the non-specific fixation.
The incubated suspensions were filtered through Whatman FG/C filter and the filters were rinsed 3 times with 5 ml of buffer Krebs Tris HCl with a pH of 7.7 at 0° C. The radioactivity of the filters was measured by liquid scintillation and the affinity of the test compounds for β2 -adrenergic receptors relative to propranolol as a standard was determined similar as to Test D. The results are reported in Table VII.

mice = assay: Acute toxicity (DL0, oral); assay type: in vivo, mouse; parameters: unit not given here
[3] = system: carotidien arterial pressure in rats; assay: Hypotensive activity (carotidien arterial pressure in anesthesized rats); assay type: in vivo, rat (Wistar); settings: rat, intravenous
Description: The hypotensive activity was studied on male rats of the Wistar strain weighing about 300 g and anesthesized with 50 mg/kg of nembutal intraveinously. The test products were administered intraveinously by the jugular vein and the carotidien arterial pressure was measured before and after administration of the test compounds. The variations expressed in percentage of arterial pressure after administration with respect to the initial pressure is reported in Table IV.

[4] = 1 min, 1 minute, read-out: % Variation of arterial pressure after administration, 1 minute
[5] = 5 min, 5 minutes, read-out: % Variation of arterial pressure after administration, 5 minutes
[6] = 10 min, 10 minutes, read-out: % Variation of arterial pressure after administration, 10 minutes
[7] = 0.5 h, 30 minutes, read-out: % Variation of arterial pressure after administration, 30 minutes

T1 sequence (P18090 whole entry): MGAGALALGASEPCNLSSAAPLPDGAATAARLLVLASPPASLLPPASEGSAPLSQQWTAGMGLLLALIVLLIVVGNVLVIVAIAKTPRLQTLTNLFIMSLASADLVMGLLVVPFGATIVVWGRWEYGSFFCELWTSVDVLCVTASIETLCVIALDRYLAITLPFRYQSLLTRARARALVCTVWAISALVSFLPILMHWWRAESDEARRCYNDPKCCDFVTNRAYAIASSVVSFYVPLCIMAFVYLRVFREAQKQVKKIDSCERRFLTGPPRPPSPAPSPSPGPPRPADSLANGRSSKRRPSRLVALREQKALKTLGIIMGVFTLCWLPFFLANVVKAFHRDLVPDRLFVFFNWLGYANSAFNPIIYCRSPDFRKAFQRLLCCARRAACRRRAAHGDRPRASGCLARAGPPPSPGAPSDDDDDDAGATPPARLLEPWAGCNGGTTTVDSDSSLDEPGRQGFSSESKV
T2 sequence (P10608 whole entry): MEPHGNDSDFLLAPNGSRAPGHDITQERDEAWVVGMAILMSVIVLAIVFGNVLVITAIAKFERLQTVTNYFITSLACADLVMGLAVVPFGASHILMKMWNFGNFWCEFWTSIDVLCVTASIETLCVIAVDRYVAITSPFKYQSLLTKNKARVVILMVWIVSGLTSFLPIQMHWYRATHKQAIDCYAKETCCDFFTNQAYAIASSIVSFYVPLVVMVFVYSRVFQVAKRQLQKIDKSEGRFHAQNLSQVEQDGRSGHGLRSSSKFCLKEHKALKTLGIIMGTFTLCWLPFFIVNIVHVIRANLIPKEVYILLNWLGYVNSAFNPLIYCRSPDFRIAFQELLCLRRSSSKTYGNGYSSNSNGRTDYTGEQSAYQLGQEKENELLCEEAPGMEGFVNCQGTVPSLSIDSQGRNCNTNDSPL

SMILES | IC50 [1] | change in vivo at 10 mg/kg [2] | % Arl (relative affinity for α1 adrenergic receptors) (α1 adrenergic receptors) | ARL in % (relative affinity for β1 adrenergic receptors) (β1 adrenergic receptors) | ARL in % (relative affinity for β2 adrenergic receptors) (β2 -adrenergic receptors) | DL0 (maximum dose which did not cause any deaths after 8 days) (mice) | change in vivo at 1 mg/kg [3, 4] | change in vivo at 1 mg/kg [3, 5] | change in vivo at 1 mg/kg [3, 6] | change in vivo at 1 mg/kg [3, 7]
C=CCOc1ccccc1OCC(O)CN1CCC(c2c[nH]c3ccccc23)CC1 (stereo not drawn) [Example 1, 4-(1H-indol-3-yl)-α-[{2-(prop-2-enyloxy)-phenoxy}-methyl]-piperidine-1-ethanol hydrochloride] | 4 µM | 63% | 247% | 7.3% | 10.5% | 100 |  |  |  | 
N#Cc1ccccc1OCC(O)CN1CCC(c2c[nH]c3ccccc23)CC1 (stereo not drawn) [Example 4, 4-(1H--indol-3-yl)-α-[2-cyanophenoxymethyl]-piperidine-1-ethanol hydrochloride] | 3.5 µM | 148% | 145% | 13.3% | 1.1% | > 100 | -24% | -21% | -22% | -26%
COC(=O)c1ccccc1OCC(O)CN1CCC(c2c[nH]c3ccccc23)CC1 (stereo not drawn) [Example 6, 4-(1H--indol-3-yl)-α-[2-methoxycarbonyl-phenoxymethyl]-piperidine-1-ethanol hydrochloride] | 3 µM | 37% | 253% | 1.3% | 3.5% | 80 | -21% | -13% | -13% | 0%
C=CCc1ccccc1OCC(O)CN1CCC(c2c[nH]c3ccccc23)CC1 (stereo not drawn) [Example 7, 4-(1H--indol-3-yl)-α-[2-prop-2-enyl)-phenoxymethyl]-piperidine-1-ethanol hydrochloride] | 0.32 µM | 50% | 100% | 3.7% | 10% | > 200 |  |  |  | 
OC(COc1ccccc1C1CCCCC1)CN1CCC(c2c[nH]c3ccccc23)CC1 (stereo not drawn) [Example 15, 4-(1H--indol-3-yl)-α-[2-cyclohexyl-phenoxymethyl]-piperidine-1-ethanol hydrochloride] | 5 µM |  |  |  | 5.4% | > 100 |  |  |  | 
C#CCc1ccccc1OCC(O)CN1CCC(c2c[nH]c3ccccc23)CC1 (stereo not drawn) [Example 16, 4-(1H--indol-3-yl)-α-[2-(prop-2-ynyl)-phenoxymethyl]-piperidine-1-ethanol hydrochloride] | 1.6 µM | 71% | 321% | 5.8% | 11% | > 100 |  |  |  | 
CC(=O)c1ccccc1OCC(O)CN1CCC(c2c[nH]c3ccccc23)CC1 (stereo not drawn) [Example 17, 4-(1H--indol-3-yl)-α-[2-(acetyl-phenoxymethyl]-piperidine-1-ethanol hydrochloride] | 6 µM | 142% | 159% | 1.2% | 3.3% | > 100 | -17% | -5% | -18% | -6%
